Legend:
Format in all cases: biochemical
[1] = target: T1, Bacillus circulans cyclodextrin glycosyltransferase (CGTase) variant M234I, Met234Ile of parent SEQ ID NO.2 [来源于环状芽孢杆菌(B.circulans)的环糊精葡萄糖基转移酶, M234I] (Niallia circulans, UniProt P43379, M261I); assay: Acceptor affinity for maltose (Km) in the disproportionation reaction, M234I; conditions: M234I vs wild type, EPS as donor, pH 5.5, 50℃, affinity expressed by Km
T1 construct: made in house; host or cells: E. coli BL21(DE3), pET-20b(+), fermentation supernatant (crude enzyme)
T1 sequence (P43379 28-713 M261I): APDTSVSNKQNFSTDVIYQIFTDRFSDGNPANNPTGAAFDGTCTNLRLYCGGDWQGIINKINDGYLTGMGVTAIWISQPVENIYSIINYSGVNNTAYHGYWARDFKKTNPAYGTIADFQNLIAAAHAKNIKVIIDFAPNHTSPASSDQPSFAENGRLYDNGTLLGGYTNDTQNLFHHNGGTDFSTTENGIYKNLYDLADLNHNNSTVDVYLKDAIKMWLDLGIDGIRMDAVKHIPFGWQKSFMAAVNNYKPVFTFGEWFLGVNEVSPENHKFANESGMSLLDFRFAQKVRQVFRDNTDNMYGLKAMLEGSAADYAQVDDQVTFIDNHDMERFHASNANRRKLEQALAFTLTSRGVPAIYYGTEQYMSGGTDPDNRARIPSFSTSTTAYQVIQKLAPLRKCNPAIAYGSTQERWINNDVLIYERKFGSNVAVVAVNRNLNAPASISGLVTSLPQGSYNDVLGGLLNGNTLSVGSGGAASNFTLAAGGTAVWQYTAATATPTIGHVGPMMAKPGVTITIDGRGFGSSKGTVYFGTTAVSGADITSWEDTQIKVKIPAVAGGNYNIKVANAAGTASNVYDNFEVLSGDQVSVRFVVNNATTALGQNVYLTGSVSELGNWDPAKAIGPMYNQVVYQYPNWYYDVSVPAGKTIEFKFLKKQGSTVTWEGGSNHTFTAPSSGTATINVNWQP

[2] = target: Bacillus circulans cyclodextrin glycosyltransferase (CGTase) variant M234A, Met234Ala of parent SEQ ID NO.2 [来源于环状芽孢杆菌(B.circulans)的环糊精葡萄糖基转移酶, M234A] (Niallia circulans, UniProt P43379, M261A); assay: Acceptor affinity for maltose (Km) in the disproportionation reaction, M234A; conditions: M234A vs wild type, EPS as donor, pH 5.5, 50℃, affinity expressed by Km
Chain of Bacillus circulans cyclodextrin glycosyltransferase (CGTase) variant M234A, Met234Ala of parent SEQ ID NO.2 [来源于环状芽孢杆菌(B.circulans)的环糊精葡萄糖基转移酶, M234A] (P43379 whole entry M261A): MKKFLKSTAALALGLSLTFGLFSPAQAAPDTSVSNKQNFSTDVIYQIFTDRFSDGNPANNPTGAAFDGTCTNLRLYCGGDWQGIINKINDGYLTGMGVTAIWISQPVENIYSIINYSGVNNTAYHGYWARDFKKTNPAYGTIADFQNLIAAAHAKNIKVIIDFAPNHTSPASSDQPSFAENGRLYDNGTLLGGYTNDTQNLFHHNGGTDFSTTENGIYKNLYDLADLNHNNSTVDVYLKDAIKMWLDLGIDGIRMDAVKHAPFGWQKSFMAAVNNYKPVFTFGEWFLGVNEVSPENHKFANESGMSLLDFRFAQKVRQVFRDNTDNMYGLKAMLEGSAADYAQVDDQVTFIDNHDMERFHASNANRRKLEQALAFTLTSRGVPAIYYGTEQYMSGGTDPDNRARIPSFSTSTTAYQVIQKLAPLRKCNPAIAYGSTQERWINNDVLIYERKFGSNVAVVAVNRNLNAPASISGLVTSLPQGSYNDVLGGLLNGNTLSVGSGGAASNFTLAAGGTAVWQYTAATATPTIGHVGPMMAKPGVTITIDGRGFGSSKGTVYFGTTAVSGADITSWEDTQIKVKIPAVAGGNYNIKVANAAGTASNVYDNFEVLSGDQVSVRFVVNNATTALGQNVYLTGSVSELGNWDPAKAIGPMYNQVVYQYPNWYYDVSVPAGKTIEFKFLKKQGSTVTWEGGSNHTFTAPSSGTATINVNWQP

[3] = target: Bacillus circulans cyclodextrin glycosyltransferase (CGTase) variant M234L, Met234Leu of parent SEQ ID NO.2 [来源于环状芽孢杆菌(B.circulans)的环糊精葡萄糖基转移酶, M234L] (Niallia circulans, UniProt P43379, M261L); assay: Acceptor affinity for maltose (Km) in the disproportionation reaction, M234L; conditions: M234L vs wild type, EPS as donor, pH 5.5, 50℃, affinity expressed by Km
Chain of Bacillus circulans cyclodextrin glycosyltransferase (CGTase) variant M234L, Met234Leu of parent SEQ ID NO.2 [来源于环状芽孢杆菌(B.circulans)的环糊精葡萄糖基转移酶, M234L] (P43379 whole entry M261L): as the sequence (P43379 whole entry M261A) above, with A261L counted along it

[4] = target: T2, Bacillus circulans cyclodextrin glycosyltransferase (CGTase) variant M234V, Met234Val of parent SEQ ID NO.2 [来源于环状芽孢杆菌(B.circulans)的环糊精葡萄糖基转移酶, M234V] (Niallia circulans, UniProt P43379, M261V); assay: Acceptor affinity for maltose (Km) in the disproportionation reaction, M234V; conditions: M234V vs wild type, EPS as donor, pH 5.5, 50℃, affinity expressed by Km
T2 construct: made in house; host or cells: E. coli BL21(DE3), pET-20b(+), fermentation supernatant (crude enzyme)
T2 sequence (P43379 28-713 M261V): as the sequence (P43379 28-713 M261I) above, with I234V counted along it

## OCC1OC(OC2C(CO)OC(O)C(O)C2O)C(O)C(O)C1O (stereo not shown) [麦芽糖]
[1]
  increase in acceptor affinity for maltose compared with wild type: 45.6%
[2]
  increase in acceptor affinity for maltose compared with wild type: 34.7%
[3]
  increase in acceptor affinity for maltose compared with wild type: 30.3%
[4]
  increase in acceptor affinity for maltose compared with wild type: 36.9%

Reference: patent CN109456950A, “一种环糊精葡萄糖基转移酶的突变体及其应用” (priority 2018, dated 2019)
